For 25 compounds, Ki results are on record in patent publication US20130150354A1, “NEW SELECTIVE CCR2 ANTAGONISTS” (BOEHRINGER INGELHEIM INTERNATIONAL GMBH, priority 2011, published 2013).

Each structure is given as a SMILES string.

In one assay the target is T1, CCR2 (Homo sapiens, UniProt P41597).
T1 construct: Membranes were prepared from THP-1 cells; endogenous in cells; host or cells: THP-1 (human acute monocytic leukaemia cells), membrane preparation
T1 sequence (P41597 1-360 isoform P41597-2): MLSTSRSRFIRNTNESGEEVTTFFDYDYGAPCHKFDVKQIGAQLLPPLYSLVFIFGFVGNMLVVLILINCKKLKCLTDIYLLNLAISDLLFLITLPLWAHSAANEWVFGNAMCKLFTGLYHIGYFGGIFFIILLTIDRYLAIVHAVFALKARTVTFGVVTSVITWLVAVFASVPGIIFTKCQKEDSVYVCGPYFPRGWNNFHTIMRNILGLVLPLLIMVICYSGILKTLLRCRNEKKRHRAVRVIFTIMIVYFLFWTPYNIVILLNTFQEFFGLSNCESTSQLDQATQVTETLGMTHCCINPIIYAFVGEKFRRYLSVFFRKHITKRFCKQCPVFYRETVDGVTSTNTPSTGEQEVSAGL
The assay is described as follows: CCR2 receptor membrane binding assay (THP-1 membranes, 125I-MCP-1, SPA beads). The following applies: THP-1 cell membranes, 125I-MCP-1, 8 h; read-out: hKi [nM] (CCR2). How it is done:
The above exemplary substances have been tested for binding to CCR2 using a binding assay as outlined herein below:
THP-1 cells (human acute monocytic leukaemia cells) were cultured under standardized conditions at 37° C. and 5% CO2 in a humidified incubator. THP-1 cells were cultivated in RPMI 1640 medium (Gibco 21875) containing 1% MEM-NEAA (Gibso 11140) 2 mM L-glutamine, 1.5 g/L sodium bicarbonate, 4.5 g/L glucose, 10 mM HEPES and 1.0 mM sodium pyruvate, 90%; 10% fetal calf serum (FCS Gibco 10500-064).
Membranes were prepared from THP-1 cells. THP-1 cells were centrifuged at 300×g at 4° C. for 10 min. The cell pellet was resuspendet in Phosphate Buffer Saline (PBS, including 10 μM Pefabloc and a protease inhibitor mix ‘complete’, Boehringer Mannheim (1 tablet/50 ml)), to a concentration of […]. The membrane preparation was performed by disrupting the cells by nitrogen […] (at 50 bar, for 1 h) in a “Nitrogen Bombe” (Parr Instrument). Cell debris was removed by centrifugation (800×g at 4° C., 1 min). The supernatant was centrifuged at 80000×g, 4° C. for 30 min to sediment the cell membranes. Usually 50 mg of protein (Bradford assay) were yielded from 1×10E9 cells. The membranes were resuspendet in 25 mM HEPES, 25 mM MgCl2, 1 mM CaCl2, 10% Glycerine for storage in aliquots at −80° C. in 25 mM HEPES, 25 mM MgCl2, 1 mM CaCl2, 10% Glycerine and stored at −80° C.
Perkin Elmer NEX 332 Jod^125 MCP-1, Stock: 2200 Ci/mmol solved in 2000 μl assay buffer, stored at −20° C. THP-1 membrane were adjusted with 25 mM HEPES, pH 7.2; 5 mM MgCl2; 0.5 mM CaCl2; 0.2% BSA assay buffer to a concentration of 2.5 μg/15 μl. Amersham Biosciences PVT-WGA Beads (RPNQ0001) were adjusted with assay buffer to a concentration of 0.24 mg/30 μl. For preparation of the membrane-bead-suspension membranes and beads were incubated for 30 min at RT under rotation (60 rpm) with a ratio of 1:2. Test compounds dissolved in 100% DMSO to a concentration of 10 mM and are further diluted with 100% DMSO to 1 mM. All additional compound dilutions were obtained with assay buffer, final 1% DMSO. Compounds, membrane-bead-suspension and [^125]MCP-1 (ca. 25000 cpm/10 μl) were incubated. Bound radioactivity was determined by scintillation counter after 8 h. Determination of affinity of test compounds (dissociation constant hKi) is calculated by iterative fitting of experimental data using the “easy sys” program, which is based on law of mass action (Schittkowski K. (1994), Numerische Mathematik, Vol. 68, 129-142).

A further assay has as its target T2, human CCR5 (Homo sapiens, UniProt P51681).
T2 construct: expressed in transfected cells; host or cells: CHO cells co-expressing Gα16, grown under puromycin and zeocin selection; membrane preparation
Put plainly: CCR5 receptor membrane binding assay (CHO (Gα16) human CCR5 membranes, [125I]RANTES, SPA beads). The following applies: 6 h, read-out: hKi [nM] (CCR5). The method, then:
The above exemplary substances have been tested for binding to CCR5 using a binding assay as outlined herein below:
CHO, (Gα16) human CCR5 cells were cultured under standardized conditions at 37° C. and 5% CO2 in a humidified incubator. CHO (Gα16) human CCR5 cells were cultivated in Ham's F12 (Invitrogen; #31765068) supplemented with 10 µg/ml Puromycin (Invitrogen; #A11139-03), 200 µg/ml Zeocin (Invitrogen; #45-0003) and 10% FCS (Gibco; #10500-064).
Membranes were prepared from CHO (Gα16) human CCR5 cells. Cells were cultured on […] plates (Nunc; #166508) 2-3 days before membrane preparation (usually 80-100 plates to obtain 80 mg protein).
Cells were scraped off the plates with a big scraper and washed with 2×5 ml ice cold Phosphate Buffer Saline (PBS; Invitrogen; #14040-174). Cell suspension was collected in a glass bottle (on ice). Cell suspension was harvested at 1400 rpm and 4° C. for 10 min and washed in PBS. Cell pellet was resuspended in 40 ml PBS with protease inhibitor mix ‘complete’ (Roche; #11873580001; 1 tablet/50 ml).
For gentle cell disruption the membrane preparation was performed by using a homogenizer (potter). Cells were homogenized for 5-10 min.
Membranes were centrifuged at 1000 rpm and 4° C. for 5 min. Supernatant (=membrane) was harvested in a new falcon tube and remaining cell pellet homogenized again for 5-10 min with PBS with protease inhibitor mix and centrifuged. Collected supernatant was centrifuged at 40000 rpm and 4° C. for 30 min to sediment the cell membranes.
The membranes were resuspended in 25 mM HEPES, 25 mM MgCl2, 1 mM CaCl2, 10% Glycerine for storage in aliquots at −80° C. Membranes were diluted to a concentration of 5 mg/ml (Bradford Assay).
[^125I]RANTES, Stock: 1825 Ci/mmol, 25 μCi (Bio Trend #A3-AI-676) was solved in 1000 μl assay buffer (100 mM NaCl; 10 mM MgCl2; 50 mM Tris-HCl; 1 mM EDTA; 0.1% BSA, pH 7.6), stored at −20° C.
CHO (Gα16) human CCR5 membrane were solved on ice and adjusted with assay buffer to a concentration of 2.5 μg/15 μl.
Amersham Biosciences PVT-WGA Beads (GE Healthcare; #RPNQ0001) were adjusted with assay buffer to a concentration of 8 mg/ml. For preparation of the membrane-bead-suspension, membranes and beads were incubated for 30 min at RT under rotation with a ratio of 1:2.
Test compounds dissolved in 100% DMSO to a concentration of 10 mM and are further diluted with 100% DMSO to 1 mM. All additional compound dilutions were obtained with assay buffer, final 1% DMSO. 7 μl compound dilution, 45 μl membrane-bead-suspension and 10 μl [^125I]RANTES (ca. 20000 cpm/10 μl) were incubated at RT. Bound radioactivity was determined by scintillation counter after 6 h. Determination of affinity of test compounds (dissociation constant Ki) is calculated by iterative fitting of experimental data using the “easy sys” program, which is based on law of mass action (Schittkowski K. (1994), Numerische Mathematik, Vol. 68, 129-142).

T2 sequence (P51681 whole entry): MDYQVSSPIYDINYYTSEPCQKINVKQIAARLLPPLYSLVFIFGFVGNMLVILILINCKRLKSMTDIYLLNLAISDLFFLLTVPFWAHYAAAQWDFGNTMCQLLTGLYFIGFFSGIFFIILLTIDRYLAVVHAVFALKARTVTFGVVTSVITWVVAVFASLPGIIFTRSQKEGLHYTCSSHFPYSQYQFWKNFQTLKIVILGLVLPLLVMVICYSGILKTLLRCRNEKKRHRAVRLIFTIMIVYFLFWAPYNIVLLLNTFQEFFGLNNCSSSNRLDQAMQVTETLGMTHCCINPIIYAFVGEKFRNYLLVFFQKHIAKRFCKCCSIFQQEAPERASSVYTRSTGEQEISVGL

As for `Cc1c(NC[C@H]2CCC[C@@H](c3ccc(C(F)(F)F)cc3)O2)ncnc1C(=O)N1CCC(N2C[C@H]3C[C@@H](N(C)S(C)(=O)=O)C[C@H]3C2)CC1` [Example 9], the figures for the Ki on CCR2 and on human CCR5 were 0.2 nM and 21 nM, respectively.
Taken in the same sequence, the figures for `Cc1c(Nc2ccc(Cl)c(Cl)c2)ncnc1C(=O)N1CCC(N2C[C@H]3C[C@@H](N(C)S(C)(=O)=O)C[C@H]3C2)CC1` [Example 10] were 0.6 nM and 92 nM.
In the same order, the values of `Cc1c(NC[C@H]2CCC[C@@H](c3ccccc3)C2)ncnc1C(=O)N1CCC(N2C[C@H]3C[C@@H](N(C)S(C)(=O)=O)C[C@H]3C2)CC1` [Example 11] are 0.8 nM and 15 nM.
Taken in the same sequence, the figures for `Cc1c(NC[C@H]2CCC[C@@H](c3ccc(C(F)(F)F)cc3)O2)ncnc1C(=O)N1CCC(N2CC3CN(S(C)(=O)=O)CC3C2)CC1` (some centres unmarked) [Example 12] were 1 nM and 220 nM.
Turning to `Cc1c(C(=O)N2CCC(N3CC4CN(S(C)(=O)=O)CC4C3)CC2)ncnc1N1CCc2ccc(C(F)(F)F)cc2C1` (centres unmarked) [Example 13], the Ki at CCR2 amounted to 7 nM; on human CCR5, 2270 nM.
In the same order, the values of `Cc1ccc([C@@H]2CCC[C@H](CNc3ncnc(C(=O)N4CCC(N5CC6CN(S(C)(=O)=O)CC6C5)CC4)c3C)O2)cc1` (some centres unmarked) [Example 14] are 3 nM and 330 nM.
As for `Cc1c(Nc2ccc(Cl)c(Cl)c2)ncnc1C(=O)N1CCC(N2CC3CN(S(C)(=O)=O)CC3C2)CC1` (centres unmarked) [Example 15], the values for the Ki at CCR2 and on human CCR5 were 3 nM and 400 nM, respectively.
`Cc1ccc([C@@H]2CCC[C@H](CNc3ncnc(C(=O)N4CCC(N5CC6COCC6C5)CC4)c3C)O2)cc1` (some centres unmarked) [Example 16]: the Ki at CCR2 amounted to 40 nM; at human CCR5, 880 nM.
In the same order, the values of `Cc1c(NC[C@H]2CCC[C@@H](c3ccc(C(F)(F)F)cc3)O2)ncnc1C(=O)N1CCC(N2CC3COCC3C2)CC1` (some centres unmarked) [Example 17] are 16 nM and 320 nM.
Taken in the same sequence, the figures for `Cc1c(Nc2ccc(Cl)c(Cl)c2)ncnc1C(=O)N1CCC(N2CC3COCC3C2)CC1` (centres unmarked) [Example 18] were 24 nM and 930 nM.
For the compound `COc1nc(NCc2ccc(C(C)(C)C)cc2)c(C)c(C(=O)N2CCC(N3CC4COCC4C3)CC2)n1` (centres unmarked) [Example 19], the Ki is 58 nM at CCR2 and 4030 nM on human CCR5.
Taken in the same sequence, the figures for `Cc1c(NCc2ccc(C(C)(C)C)cc2)nc(C(F)(F)F)nc1C(=O)N1CCC(N2CC3COCC3C2)CC1` (centres unmarked) [Example 20] were 69 nM and 2610 nM.
Taken in the same sequence, the figures for `Cc1c(NC[C@H]2CCC[C@@H](c3ccc(C(F)(F)F)cc3)O2)ncnc1C(=O)N1CCC(N2CCOC3COCCC32)CC1` (some centres unmarked) [Example 21] were 3 nM and 200 nM.
For `Cc1ccc([C@@H]2CCC[C@H](CNc3ncnc(C(=O)N4CCC(N5CCOC6COCCC65)CC4)c3C)O2)cc1` (some centres unmarked) [Example 22], the Ki stood at 15 nM on CCR2 and 1170 nM at human CCR5.
Taken in the same sequence, the figures for `Cc1c(C(=O)N2CCC(N3CCOC4COCCC43)CC2)ncnc1N1CCc2ccc(C(F)(F)F)cc2C1` (centres unmarked) [Example 23] were 17 nM and 5820 nM.
In the same order, the values of `Cc1c(Nc2ccc(Cl)c(Cl)c2)ncnc1C(=O)N1CCC(N2CCO[C@H]3COCC[C@H]32)CC1` [Example 24] are 2 nM and 670 nM.
Consider `Cc1nc(Nc2ccc(Cl)c(Cl)c2)c(C)c(C(=O)N2CCC(N3CCO[C@H]4COCC[C@H]43)CC2)n1` [Example 25], for which the Ki at CCR2 stood at 3 nM; at human CCR5 it was 470 nM.
Taken in the same sequence, the figures for `Cc1c(Nc2ccc(Cl)c(Cl)c2)nc(C2CC2)nc1C(=O)N1CCC(N2CCO[C@H]3COCC[C@H]32)CC1` [Example 26] were 0.8 nM and 430 nM.
In the same order, the values of `COc1nc(Nc2cccc(C(F)(F)F)c2)c(C)c(C(=O)N2CCC(N3CCO[C@H]4COCC[C@H]43)CC2)n1` [Example 27] are 3 nM and 1000 nM.
Consider `COc1nc(Nc2ccc(Cl)c(Cl)c2)c(C)c(C(=O)N2CCC(N3CCO[C@H]4COCC[C@H]43)CC2)n1` [Example 28], for which the Ki on CCR2 was 0.9 nM; on human CCR5, 390 nM.
In the case of `Cc1c(Nc2cccc(C(F)(F)F)c2)nc(C2CC2)nc1C(=O)N1CCC(N2CCO[C@H]3COCC[C@H]32)CC1` [Example 29], the Ki on CCR2 came to 1 nM; on human CCR5, 960 nM.
On to `Cc1nc(Nc2cccc(C(F)(F)F)c2)c(C)c(C(=O)N2CCC(N3CCO[C@H]4COCC[C@H]43)CC2)n1` [Example 30], for which the Ki was 9 nM at CCR2 and 1000 nM at human CCR5.
Taken in the same sequence, the figures for `Cc1ccc2c(c1)CN(c1nc(C)nc(C(=O)N3CCC(N4CCO[C@H]5COCC[C@H]54)CC3)c1C)CC2` [Example 31] were 67 nM and 7010 nM.
Taken in the same sequence, the figures for `Cc1c(C(=O)N2CCC(N3CC4COCC4C3)CC2)ncnc1N1CCc2ccc(C(F)(F)F)cc2C1` (centres unmarked) [Example 32] were 80 nM and 5310 nM.
As for `Cc1c(NCc2ccc(C(C)(C)C)cc2)ncnc1C(=O)N1CCC(N2CC3CN(S(C)(=O)=O)CC3C2)CC1` (centres unmarked) [Example 42], the figures for the Ki at CCR2 and on human CCR5 were 11 nM and 1820 nM, respectively.
